Assay results published in US20090054392A1, “NAPHTHYLPYRIMIDINE, NAPHTHYLPYRAZINE AND NAPHTHYLPYRIDAZINE ANALOGS AND THEIR USE AS AGONISTS OF THE WNT-BETA-CATENIN CELLULAR MESSAGING SYSTEM” (Wyeth, priority 2007, published 2009).
pEC50: −log10 of the molar value.

Tested on: Dkk1-LRP5-TCF-Luciferase
Experiment: Functional Dkk1-LRP5-TCF-Luciferase Assay in U2OS Cells
Details: for fold induction at 2 µM / fold induction at 20 µM / pEC50: Homo sapiens, U2OS; for fold induction at 2 µM: read-out: B = TCF ACTIVITY/DMSO CONTROL Fold induction @ 2.0 uM, 2.0 uM compound; for fold induction at 20 µM: read-out: C = TCF ACTIVITY/DMSO CONTROL Fold induction @ 20.0 uM, 20.0 uM compound; for A = MAX FOLD Induction/DMSO CONTROL: maximum fold induction over DMSO control

Row | A = MAX FOLD Induction/DMSO CONTROL [fold] | pEC50 | SMILES | fold induction at 2 µM | fold induction at 20 µM
1 | 3.430 |  | CCN(CCO)[C@@H]1CCN(c2nccc(-c3ccc4ccccc4c3)n2)C1 [2-(ethyl{(3R)-1-[4-(2-naphthyl)pyrimidin-2-yl]pyrrolidin-3-yl}amino)ethanol] | 1.8 | 5.83
2 | 6.695 | 5.41 | CCN(CCO)[C@H]1CCN(c2nccc(-c3ccc4ccccc4c3)n2)C1 [2-(ethyl{(3S)-1-[4-(2-naphthyl)pyrimidin-2-yl]pyrrolidin-3-yl}amino)ethanol] | 1.42 | 5.58
3 |  |  | NCCC1CN(c2nccc(-c3ccc4ccccc4c3)n2)C1 [2-[1-(4-naphthalen-2-ylpyrimidin-2-yl)azetidin-3-yl]ethanamine] | 2.4 | 
4 |  |  | c1ccc2cc(-c3ccnc(N4CCC(Cn5ccnc5)C4)n3)ccc2c1 (centres unmarked) [2-[3-(1H-imidazol-1-ylmethyl)pyrrolidin-1-yl]-4-(2-naphthyl)pyrimidine] | 1.28 | 0.38
5 | 2.500 |  | c1ccc2cc(-c3ccnc(N4CCC(CN5CCC5)C4)n3)ccc2c1 (centres unmarked) [2-[3-(azetidin-1-ylmethyl)pyrrolidin-1-yl]-4-(2-naphthyl)pyrimidine] | 1.73 | 
6 |  |  | ClCC1CCN(c2nccc(-c3ccc4ccccc4c3)n2)C1 (centres unmarked) [2-[3-(chloromethyl)pyrrolidin-1-yl]-4-(2-naphthyl)pyrimidine] | 1.32 | 0.49
7 | 4.630 | 4.93 | c1ccc2cc(-c3ccnc(N4CCC(Cn5ccnc5)CC4)n3)ccc2c1 [2-[4-(1H-imidazol-1-ylmethyl)piperidin-1-yl]-4-(2-naphthyl)pyrimidine] | 1.13 | 3.34
8 |  |  | [N-]=[N+]=NCCC1CCN(c2nccc(-c3ccc4ccccc4c3)n2)CC1 [2-[4-(2-azidoethyl)piperidin-1-yl]-4-(2-naphthyl)pyrimidine] | 1 | 1.67
9 | 1.630 |  | O=C(c1ccco1)N1CCN(c2nccc(-c3ccc4ccccc4c3)n2)CC1 [2-[4-(2-furoyl)piperazin-1-yl]-4-(2-naphthyl)pyrimidine] | 1.49 | 3.62
10 |  |  | c1ccc2c(c1)CCN(c1nccc(-c3ccc4ccccc4c3)n1)C2 [2-[4-(2-naphthyl)pyrimidin-2-yl]-1,2,3,4-tetrahydroisoquinoline] | 0.95 | 1.38
11 |  |  | c1ccc2cc(-c3ccnc(N4CCC5(CCNCC5)C4)n3)ccc2c1 [2-[4-(2-naphthyl)pyrimidin-2-yl]-2,8-diazaspiro[4.5]decane] | 1.7 | 
12 | 1.960 |  | c1ccc2cc(-c3ccnc(N4CC[C@@H](n5ccnc5)C4)n3)ccc2c1 [2-[(3R)-3-(1H-imidazol-1-yl)pyrrolidin-1-yl]-4-(2-naphthyl)pyrimidine] | 1.31 | 3.9
13 | 3.290 |  | c1ccc2cc(-c3ccnc(N4CC[C@H](Cn5ccnc5)C4)n3)ccc2c1 [2-[(3R)-3-(1H-imidazol-1-ylmethyl)pyrrolidin-1-yl]-4-(2-naphthyl)pyrimidine] | 1.95 | 3.04
14 | 1.020 |  | CN1CCN([C@@H]2CCN(c3nccc(-c4ccc5ccccc5c4)n3)C2)CC1 [2-[(3R)-3-(4-methylpiperazin-1-yl)pyrrolidin-1-yl]-4-(2-naphthyl)pyrimidine] | 3.67 | 0.01

Row | SMILES | A = MAX FOLD Induction/DMSO CONTROL [fold] | pEC50 | fold induction at 2 µM | fold induction at 20 µM
15 | CN(c1nccc(-c2ccc3ccccc3c2)n1)C1CCN(CC(N)=O)CC1 [2-(4-{methyl[4-(2-naphthyl)pyrimidin-2-yl]amino}piperidin-1-yl)acetamide] | 2.215 |  | 2.62 | 0.02
